Experimental data published in patent US12252457B2, “Compositions and methods for reducing tactile dysfunction, anxiety, and social impairment” (President and Fellows of Harvard College, priority 2018, dated 2025).

Test system: Mecp2^R306C and Shank3B^+/− mice
Test: Chronic isoguvacine treatment from P0-P42 of Mecp2 and Shank3 germline mutant mice
Format: in vivo, mouse
Experimental: FIGS. 21A-21O show chronic administration of isoguvacine improves tactile over-reactivity, region-selective cortical abnormalities, and some ASD-related behaviors in Mecp2 and Shank3 mutant mice. FIG. 21A: Representative images of P21 control and Mecp2^C/y mutant mice treated daily from P0-21 with either saline or isoguvacine (2 mg/kg). FIG. 21B: Average phenotypic score of P21 Shank3B^+/− or Mecp2^C/y mutant mice and control littermates treated daily with either saline or isoguvacine (2 mg/kg). One-way ANOVA with post-hoc Tukey's test, *, p<0.05. FIG. 21C: Average bodyweight of P21 Shank3B^+/− or Mecp2^C/y mutant mice and control littermates treated daily with either saline or isoguvacine (2 mg/kg). One-way ANOVA with post-hoc Tukey's test, *, p<0.05. […] One-way ANOVA with post-hoc Tukey's test, *, p<0.05. FIG. 21E: Discrimination index for textured NORT. One-way ANOVA with post-hoc Tukey's test, *, p<0.05. FIG. 21F: Representative activity traces in the OF test. FIG. 21G: Percent time spent in the center of the OF chamber. One-way ANOVA with post-hoc Tukey's test, *, p<0.05. FIG. 21H: Percent time spent in the open arms of the EPM. One-way ANOVA with post-hoc Tukey's test, *, p<0.05. FIGS. 21I-21J: Preference index for the percentage of time spent investigating the novel mouse in the “Sociability” (FIG. 21I) or “Social Novelty Recognition Preference” (FIG. 21J) portion of the 3-chamber social interaction test. One-way ANOVA with post-hoc Tukey's test, *, p<0.05. FIG. 21K: Representative IHC images of transverse S1 brain sections, showing PV immunoreactivity in Shank3B^+/− or Mecp2^C/y mutant mice and control littermates treated daily from P1-42 with either saline or isoguvacine (2 mg/kg). FIGS. 21L-21M: Quantification of the number of PV-positive (PV^+) neurons in S1 (FIG. 21L) and V1 (FIG. 21M). One-way ANOVA with post-hoc Tukey's test, *, p<0.05. FIG. 21N: Representative traces showing ePSCS (−70 my hold) and iPSCs (0 mV hold) from S1 slices from Shank3B^+/− or Mecp2^C/y mutant mice and control littermates treated daily from P1-42 with either saline or isoguvacine (2 mg/kg). FIG. 21O: Quantification of excitatory/inhibitory (E/I) ratio in S1 or V1 slices from control and mutant mice. One-way ANOVA with post-hoc Tukey's test, *, p<0.05.
Therefore, it was tested whether chronic treatment of Mecp2 and Shank3 germline mutant mice with isoguvacine beginning shortly after birth (i.p. administration, 2 mg/kg per daily, from P0-P42) improves any of the ASD-related phenotypes commonly observed in adulthood. […] Taken together, treatment with a peripherally restricted GABAA receptor agonist during early postnatal development may provide an effective therapeutic strategy for improving tactile over-reactivity and a subset of other key features of ASD, including anxiety, without causing sedation and other undesirable effects of activating brain GABAA receptors during development.

Structure (SMILES): O=C(O)C1=CCNCC1 [Isoguvacine, isoguvacine]
- tactile over-reactivity, anxiety-like behaviors, social impairments, PV+ neuron abnormalities in S1 and BLA, E/I ratios in S1 (8-week-old mice, 2 mg/kg i.p. daily P0-P42): significantly improved multiple ASD-associated behavioral phenotypes
- motor impairments (Mecp2 mutants, chronic 2 mg/kg): not improved
- overall body appearance, or phenotypic score (P21, 2 mg/kg i.p. daily, vs saline-treated): substantial improvement
- bodyweight of mutant mice (P21, Shank3B and Mecp2 mutant mice, 2 mg/kg daily): increased bodyweight and were not different in weight from control mice
- overgrooming phenotype (Shank3 mutants, chronic 2 mg/kg): nor was the overgrooming phenotype rescued
- textured discrimination deficits, acoustic PPI performance, memory impairments, PV+ neuron abnormalities and E/I ratios in V1 (Shank3 or Mecp2 mutants, 2 mg/kg i.p. daily P0-P42): did not improve
